Common to all, as to assay type: biochemical
Experiment [1] deals with T1, CDK1/CyclinB1 (Homo sapiens, UniProt P06493).
T1 construct: purchased Carna
Nature of the experiment: Lance Ultra KinaSelect Assay, CDK1. To be noted: ULight MBP substrate, ATP 20 μM; read-out: CDK1 LANCE assay (activity range), IC50. The procedure: (§1) This protocol describes how the Lance Ultra KinaSelect Assay was performed to determine half maximal inhibitory concentration (IC50) of compounds of general formula (I) and CDK/Cyclin complexes. The principle behind this enzymatic assay is based upon the phosphorylation of the ULight-Peptide Substrat. It is detected by using a specific EU-labeled anti-phospho peptide antibody. The binding of the Eu-labeled anti-phospho peptide antibody to the phosphorylated ULight labeled peptide gives rise to a FRET-signal. Binding of an inhibitor to the kinase prevents phosphorylation of the ULight-MBP Substrat, resulting in a loss of FRET.
(§2) The compounds of general formula (I) summarized in Table 5 were diluted from a 10 mM DMSO stock solution 1:10 in a total volume of 15 μL DMSO. […] Positive and negative controls were calculated from at least 8 different sample wells. […] Before reading, 10 μL the detection buffer (Lance Detection Buffer 1×; EDTA: […]; Eu-Anti-P-MBP: see Table 3) was added. The FRET signal was measured at 340 nm excitation, 665 nm and 615 nm emission (for the kinase tracer and LanthaScreen Eu-AB, respectively) with an Envision spectrophotometer (Perkin Elmer, Waltham, Mass., USA) with 50 μs delay and 300 μs integration time. IC50 values were determined from the sigmoidal dose response curves with the software Quattro Workflow (Quattro GmbH, Munich, Germany).

For experiment [2], the target named is T2, CDK4/CyclinD1 (Homo sapiens, UniProt P11802).
T2 construct: purchased Invitrogen
T2 sequence (P11802 whole entry): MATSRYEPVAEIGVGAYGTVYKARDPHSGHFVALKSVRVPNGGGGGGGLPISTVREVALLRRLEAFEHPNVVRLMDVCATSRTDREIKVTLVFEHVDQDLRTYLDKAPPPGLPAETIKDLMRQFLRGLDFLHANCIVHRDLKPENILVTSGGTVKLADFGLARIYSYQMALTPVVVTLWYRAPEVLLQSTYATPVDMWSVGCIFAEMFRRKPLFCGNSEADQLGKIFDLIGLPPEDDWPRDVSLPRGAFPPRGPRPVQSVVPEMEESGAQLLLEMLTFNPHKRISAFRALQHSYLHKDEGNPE
T2 sequence (P24385 whole entry partner): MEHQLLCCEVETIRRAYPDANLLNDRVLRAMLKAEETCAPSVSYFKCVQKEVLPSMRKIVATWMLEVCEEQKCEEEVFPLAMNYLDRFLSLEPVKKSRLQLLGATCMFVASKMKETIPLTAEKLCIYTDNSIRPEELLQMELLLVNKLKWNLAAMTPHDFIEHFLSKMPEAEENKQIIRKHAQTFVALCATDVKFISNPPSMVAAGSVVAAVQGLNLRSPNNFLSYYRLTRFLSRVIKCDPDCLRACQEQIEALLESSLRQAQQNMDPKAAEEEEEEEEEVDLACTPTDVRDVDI
Nature of the experiment: Lance Ultra KinaSelect Assay, CDK4. The note with it: ULight MBP substrate, ATP 90 μM; read-out: CDK4 LANCE assay (activity range), IC50. The procedure:
as §1, §2
(Time-resolved FRET reads energy transfer from a long-lived donor to a nearby acceptor.)

The target in experiment [3] is T3, CDK6/CyclinD3 (Homo sapiens, UniProt Q00534).
T3 construct: purchased Carna
T3 sequence (Q00534 whole entry): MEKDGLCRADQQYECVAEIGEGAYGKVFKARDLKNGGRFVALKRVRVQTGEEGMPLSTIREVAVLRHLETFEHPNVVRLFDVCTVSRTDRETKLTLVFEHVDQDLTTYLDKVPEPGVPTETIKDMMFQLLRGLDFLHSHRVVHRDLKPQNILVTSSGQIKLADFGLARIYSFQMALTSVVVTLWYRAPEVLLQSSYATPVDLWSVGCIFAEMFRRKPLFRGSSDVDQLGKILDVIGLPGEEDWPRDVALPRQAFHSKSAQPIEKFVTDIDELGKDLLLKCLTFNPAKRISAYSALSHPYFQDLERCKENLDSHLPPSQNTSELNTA
T3 sequence (P30281 whole entry partner): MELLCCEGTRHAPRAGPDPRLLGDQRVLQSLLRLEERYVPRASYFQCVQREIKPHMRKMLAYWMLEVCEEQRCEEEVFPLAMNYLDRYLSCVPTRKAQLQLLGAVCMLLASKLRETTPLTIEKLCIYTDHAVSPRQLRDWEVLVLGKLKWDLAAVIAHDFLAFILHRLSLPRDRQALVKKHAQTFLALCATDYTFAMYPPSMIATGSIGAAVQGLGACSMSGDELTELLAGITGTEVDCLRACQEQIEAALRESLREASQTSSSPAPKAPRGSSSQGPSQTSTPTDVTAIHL
Description: Lance Ultra KinaSelect Assay, CDK6. To be noted: ULight MBP substrate, ATP 55 μM; read-out: CDK6 LANCE assay (activity range), IC50. The method, then: as §1, §2

Each structure is given as a SMILES string.

T1 sequence (P06493 whole entry): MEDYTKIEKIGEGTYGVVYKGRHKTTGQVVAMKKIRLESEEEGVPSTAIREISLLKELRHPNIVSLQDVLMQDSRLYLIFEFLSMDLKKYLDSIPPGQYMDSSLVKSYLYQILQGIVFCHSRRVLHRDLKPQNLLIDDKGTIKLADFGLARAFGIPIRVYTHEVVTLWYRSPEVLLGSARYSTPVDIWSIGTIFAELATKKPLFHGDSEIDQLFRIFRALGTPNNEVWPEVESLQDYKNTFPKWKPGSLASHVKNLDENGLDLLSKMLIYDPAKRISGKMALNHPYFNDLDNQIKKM
T1 sequence (P14635 whole entry partner): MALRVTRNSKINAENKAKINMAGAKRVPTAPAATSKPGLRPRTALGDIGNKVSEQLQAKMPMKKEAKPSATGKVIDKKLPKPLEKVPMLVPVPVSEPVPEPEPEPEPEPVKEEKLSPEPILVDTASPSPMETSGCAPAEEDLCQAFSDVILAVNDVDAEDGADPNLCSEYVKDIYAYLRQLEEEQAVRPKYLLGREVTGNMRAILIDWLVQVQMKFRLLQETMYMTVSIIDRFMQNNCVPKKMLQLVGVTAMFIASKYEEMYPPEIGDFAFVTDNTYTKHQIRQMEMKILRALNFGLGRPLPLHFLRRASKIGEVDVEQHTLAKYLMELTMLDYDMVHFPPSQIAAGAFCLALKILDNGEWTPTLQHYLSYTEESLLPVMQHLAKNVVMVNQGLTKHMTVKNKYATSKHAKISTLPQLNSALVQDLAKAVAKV

With `COc1ccccc1-c1ccnc(Nc2cccc(S(N)(=O)=O)c2)c1` [Compound D1, 3-[(4-(2-Methoxyphenyl)pyridin-2-yl)amino]benzenesulfonamide], the IC50 (commonly the midpoint of a concentration-inhibition curve) in experiment [1] was 1 to 10 µM; in experiment [2], over 10 µM; in experiment [3], over 10 µM.

Regarding `COc1cc(F)ccc1-c1ccnc(Nc2cccc(CS(N)(=O)=O)c2)c1` [Compound G1, [3-((4-(4-Fluoro-2-methoxyphenyl)pyridin-2-yl)amino)phenyl]-methanesulfonamide], the 50% inhibitory concentration (IC50) in experiment [1] is 1 to 10 µM; in experiment [2], 1 to 10 µM; in experiment [3], over 10 µM.

Source of the values: patent publication US9242937B2, “Pharmaceutically active disubstituted pyridine derivatives” (Bayer Intellectual Property GmbH, priority 2011, dated 2016).
